Experimental data published in US4501744A, “Substituted-aza-cytosine compounds and anti-viral uses thereof” (ens BIO LOGICALS Inc., priority 1983, dated 1985).
≈ marks a conversion by molar mass, not a printed value. Like-named read-outs stand apart in the source and are kept apart here.

What was measured:
Toxicity to host cells = format: cell-based, human; details: in the HSV test; human fetal fibroblasts; read-out: concentration up to which no evidence of toxicity was shown
[1] = test system: human fetal fibroblasts / mammalian cells; experiment: Toxicity to host cells; format: cell-based; details: at the dosage level active against HSV and CMV
cytomegalovirus (CMV) = experiment: CMV plaque (microplaque/ELISA) assay in human fetal fibroblast (lung) HFF cells; format: cell-based; details: at a dosage level non-toxic to mammalian cells
Method: The compounds of example 3, (5-aza-C*) was tested in vitro for activity against cytomegalovirus, CMV, in mammalian cells. Human fetal fibroblast (lung) HFF cells were used, in generally standard viral plaque titration methods.
Human fetal fibroblast (lung) HFF cells were used, in generally standard viral plaque titration methods. The cells were grown and maintained in Basal Medium Eagle (BME) supplemented with 0.112% sodium bicarbonate, 2 mM L-glutamine, 2 mg % neomycin and 20% (vol/vol) calf serum.
A viral plaque titration method (Roizman & Roane, 1961) was used to determine the virus titre of the CMV. 35 mm tissue culture plates were seeded with HFF 36 P5 and grown to 50-70% monolayer. […]
The cells were incubated for 72 hours at 37° C. in 5% carbon dioxide atmosphere. At 75 hours, the number of CMV infected foci (microplaques) was quantitated using enzyme linked immunosorbent assay (ELISA) using as an enzyme tag horseradish peroxidase and DAB substrate so as to stain the infected foci with a brown precipitate. […]
CMV-positive human serum was diluted 1:10 with PBS, and 0.2 ml of the diluted serum was put in each plate and the plate shaken for 30 minutes. […] Plaques were counted, and numbers of plaques per microscopic field determined.
The reading of the CMV assay was done by comparing no-drug controls to the drug treated plates. […]

[2] = test system: herpes simplex virus (HSV); experiment: Plaque titration: reduction of plaque size and plaque number of herpes simplex virus in human fetal fibroblasts; format: cell-based; details: for IC25 / IC50 / IC75: Fibroblast, human fetal fibroblasts, 48 h
Method: Herpes simplex virus (HSV) strains were grown and titrated at 36° C. in human fetal fibroblasts derived from fetal tissues, and used for virus work before the tenth passage. Cells were grown and maintained in basal medium Eagle (BME; Auto-Pow, Flow Laboratories) supplemented with 0.112% sodium bicarbonate, 2 mM 1-glutanine, 2 mg neomycin per 100 ml and 5-20% calf serum. 5% BME, as described hereafter, indicates medium containing 5 ml of calf serum in a total volume of 100 ml.
The titer of the HSV strains is determined by a plaque titration method (Roizman & Roane, "Virology", 15, 75-79, 1961). Tissue culture dishes are seeded with cells and used for assays when approximately 75% monolayer. Volumes (0.2 ml) of logarithmic dilutions of the strain are inoculated onto each of two tissue culture dishes, and adsorbed for 1 hr. with intermittent shaking, the inoculum removed, and 2 ml of 5% BME containing 0.5% human immune serum globulin added. After a 48 hour incubation period at 36° C. in a 5% CO2 atmosphere, the overlay medium is removed and the cell sheets stained with a 0.05% aqueous crystal violet solution. The number of plaques is counted, the duplicates averaged, and the number of plaque-forming units calculated.
The compounds are tested for activity against the herpes simplex strains using a stock solution of each compound freshly prepared by dissolving 1.2 mg in BME. Appropriate dilution of each compound are made in 5% BME containing 0.5% human immune serum globulin just before usage.
Tissue culture dishes (35 by 10 mm) with approximately 75% cell monolayer are inoculated with approximately 50 plaque-forming units of HSV per 0.2 ml, and the virus adsorbed for 1 hour, with intermittent shaking. After removal of the inoculum, 2 ml of 5% BME with 0.5% immune globulin and three-fold dilutions of the appropriate drug are added. One set of dishes receives no drug and is used as a control. After a 48-hour incubation period, at 36° C. in a 5% CO2 atmosphere, the overlay medium is removed, the cells stained as described above, and plaques counted. The counts of replicate plates are averaged, and the number of plaques emerging in the presence of each drug dilution is calculated. The reduction in plaque size caused by the concentration of the drug, as compared with the relevant control, is also measured, visually. […] A reduction in the area of the growing plaque indicates inhibition of plaque growth, i.e. inhibition of viral reproduction, caused by the drug.

[3] = test system: herpes simplex virus (HSV); details: disclosed in U.S. Pat. No. 4,347,360; cited from earlier work
[4] = read-out: concentration reducing plaque numbers by 25%
[5] = read-out: concentration reducing plaque numbers by 50%
[6] = read-out: concentration reducing plaque size by 25%
[7] = read-out: concentration reducing plaque size by 50%

SMILES | MNTC at 48 h (Toxicity to host cells) [µg/mL] | toxicity to mammalian cells (in words) [1] | activity against CMV (in words) (cytomegalovirus (CMV)) | activity against HSV (in words) [2] | IC25 [2, 4] [µg/mL] | IC50 [2, 5] [µg/mL] | IC75 ([2]; read-out: concentration reducing plaque numbers by 75%) [µg/mL] | IC25 [2, 6] [µg/mL] | IC50 [2, 7] [µg/mL] | IC75 ([2]; read-out: concentration reducing plaque size by 75%) [µg/mL] | activity against HSV (in words) ([2]; listed as 5-aza-1-[[1-hydroxymethyl(2-hydroxy)ethoxy]methyl]cytosine) | activity against herpes simplex virus (in words) [3]
Nc1ncn(COC(CO)CO)c(=O)n1 [5-aza-C*, 5-aza-1-[[1-hydroxymethyl-[2-hydroxy]-ethoxy]methyl]cytosine] | > 304 | non-toxic to mammalian cells | active | high activity against the HSV | 8 (≈ 37 µM) | 30 (≈ 139 µM) | 140 (≈ 648 µM) | 5 (≈ 23.1 µM) | 30 (≈ 139 µM) | 110 (≈ 509 µM) | active against herpes simplex virus HSV | –
O=c1[nH]c(=O)n(COC(COCc2ccccc2)COCc2ccccc2)cc1F [5F-benzyl-U*, 1-[[2-benzyloxy-1-(benzyloxymethyl)ethoxy]methyl]-5-fluorouracil] | > 110 | – | – | showed activity against HSV | 70 (≈ 169 µM) | 110 (≈ 265 µM) | – | 10 (≈ 24.1 µM) | 50 (≈ 121 µM) | – | – | –
Nc1ncnc2c1ncn2COC(CO)CO [9-[[2-hydroxy-1-(hydroxymethyl)ethoxy]-methyl]adenine] | – | – | – | – | – | – | – | – | – | – | – | active against herpes simplex virus
Nc1ccn(COC(COCc2ccccc2)COCc2ccccc2)c(=O)n1 [dibenzyl-C*, 1-[[2-benzyloxy-1-(benzyloxymethyl)]ethoxymethyl]cytosine] | – | – | – | exhibited activity against HSV, but to a lesser extent | – | – | – | – | – | – | – | –
